Results as given in PMC11178787, “Development of a natural product optimization strategy for inhibitors against MraY, a promising antibacterial target” (Nature Communications, 2024).
In brackets after ≈: the same amount, converted by molar mass.

What was measured:
[1] = target: MraYSA (S. aureus MraY) (Staphylococcus aureus, UniProt Q2FZ93); test: fluorescence assay of dansylated lipid I formation; format: biochemical
[2] = system: T1, S. aureus ATCC 29213; test: microbe, parasite or virus in culture; settings: Staphylococcus aureus, ATCC29213
T1 construct: ATCC 29213
Method: (§1) MICs were determined by a microdilution broth method as recommended by the CLSI with MHB-II. For MICs of stable analogues, a 2-fold dilution of each compound was prepared in DMSO at 100-fold of the final concentration. The strains were inoculated with 5 × 10^5 cfu/mL in 96-well plates (each 100 μL/well), and 1 μL of DMSO solutions of the samples were added (contained less than 1% DMSO). The plates were incubated at 37 °C for 18 h and then MICs were determined. MICs of stable analogues in Table 1 were the highest value in three trials. MICs in Supplementary Table 1 were determined in one trial.  Fig. 2 Results of biological evaluations of hydrazone library. a General structures of hydrazine fragment moiety are shown. Each hydrazine class are represented by different colours (green; BZ, cyan; PA, grey; AC, yellow; AA, orange; LA). b–h MraY inhibitory activity and antibacterial activity of the hydrazone library. The bar graphs show the relative enzyme activity with DMSO as 100% when the compound is treated at given concentration (b,c; TUN at 100 nM, d,e; MRY at 10 nM, f.g; MRD at 100 nM, h; CAP at 1000 nM. n = 1), with the lower bars indicating higher inhibitory activity. The colour of the bars corresponds to Fig. 2a. […] Data of control compounds (van: vancomycin, col: colistin) are shown left column in each panel. E. faecium ATCC 35667, S. aureus ATCC 29213, P. aeruginosa ATCC 27853, K. pneumoniae ATCC 13883, E. cloacae ATCC 13047, A. baumannii ATCC 19606, E. coli ATCC 25922.

[3] = system: T2, E. coli ATCC 25922; test: microbe, parasite or virus in culture; settings: Escherichia coli, ATCC25922
T2 construct: ATCC 25922
Method: as §1

[4] = system: T3, P. aeruginosa ATCC 27853; test: microbe, parasite or virus in culture; settings: Pseudomonas aeruginosa, ATCC27853
T3 construct: ATCC 27853
Method: as §1

[5] = system: T4, A. baumannii ATCC 19606; test: microbe, parasite or virus in culture; settings: Acinetobacter baumannii, ATCC19606
T4 construct: ATCC 19606
Method: as §1

[6] = system: T5, E. faecium ATCC 35667; test: microbe, parasite or virus in culture; settings: Enterococcus faecium, ATCC35667
T5 construct: ATCC 35667
Method: as §1

[7] = system: T6, K. pneumoniae ATCC 13883; test: microbe, parasite or virus in culture; settings: Klebsiella pneumoniae, ATCC13883
T6 construct: ATCC 13883
Method: as §1

[8] = system: T7, E. cloacae ATCC 13047; test: microbe, parasite or virus in culture; settings: Enterobacter cloacae, ATCC13047
T7 construct: ATCC 13047
Method: as §1

Chain of MraYSA (S. aureus MraY) (Q2FZ93 whole entry): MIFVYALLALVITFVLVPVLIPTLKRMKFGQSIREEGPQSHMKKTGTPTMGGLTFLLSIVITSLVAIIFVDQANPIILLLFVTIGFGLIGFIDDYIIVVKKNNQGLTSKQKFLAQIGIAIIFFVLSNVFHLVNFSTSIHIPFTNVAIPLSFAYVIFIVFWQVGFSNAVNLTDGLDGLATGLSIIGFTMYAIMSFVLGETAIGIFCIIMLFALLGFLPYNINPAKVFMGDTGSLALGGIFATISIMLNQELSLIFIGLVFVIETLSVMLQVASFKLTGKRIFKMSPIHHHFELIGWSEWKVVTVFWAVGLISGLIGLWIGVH

CC(C)(C)c1ccc(C(=O)N/N=C/c2ccc(CN[C@H](C(=O)O)[C@H](O[C@@H]3O[C@H](CN)[C@@H](O)[C@H]3O)[C@H]3O[C@@H](n4ccc(=O)[nH]c4=O)[C@H](O)[C@@H]3O)cc2)cc1 [MRYp-BZ2]
IC50 [1]: 2.4 nM

CC[C@H]1OC(=O)[C@H](C)[C@@H](O[C@H]2C[C@@](C)(OC)[C@@H](O)[C@H](C)O2)[C@H](C)[C@@H](O[C@@H]2O[C@H](C)C[C@H](N(C)C)[C@H]2O)[C@](C)(O)C[C@@H](C)CN(C)[C@H](C)[C@@H](O)[C@]1(C)O [azithromycin]
MIC [2]: 5 µM (≈ 3.74 µg/mL)
MIC [3]: 5 µM (≈ 3.74 µg/mL)
MIC [4]: 50 µM (≈ 37.4 µg/mL)
MIC [5]: 50 µM (≈ 37.4 µg/mL)
MIC [6]: < 0.5 µM
MIC [7]: 5 µM (≈ 3.74 µg/mL)
MIC [8]: 50 µM (≈ 37.4 µg/mL)

CC[C@H]1OC(=O)[C@H](C)[C@@H](O[C@H]2C[C@@](C)(OC)[C@@H](O)[C@H](C)O2)[C@H](C)[C@@H](O[C@@H]2O[C@H](C)C[C@H](N(C)C)[C@H]2O)[C@](C)(O)C[C@@H](C)C(=O)[C@H](C)[C@@H](O)[C@]1(C)O [erythromycin]
MIC [2]: < 0.5 µM
MIC [3]: 50 µM (≈ 36.7 µg/mL)
MIC [4]: > 50 µM
MIC [5]: 50 µM (≈ 36.7 µg/mL)
MIC [6]: < 0.5 µM
MIC [7]: > 50 µM
MIC [8]: > 50 µM

CO[C@H]1/C=C/O[C@@]2(C)Oc3c(C)c(O)c4c(O)c(c(/C=N/N5CCN(C)CC5)c(O)c4c3C2=O)NC(=O)/C(C)=C\C=C\[C@H](C)[C@H](O)[C@@H](C)[C@@H](O)[C@@H](C)[C@H](OC(C)=O)[C@@H]1C [rifampicin]
MIC [2]: < 0.5 µM
MIC [3]: 5 µM (≈ 4.11 µg/mL)
MIC [4]: 50 µM (≈ 41.1 µg/mL)
MIC [5]: 5 µM (≈ 4.11 µg/mL)
MIC [6]: 5 µM (≈ 4.11 µg/mL)
MIC [7]: 50 µM (≈ 41.1 µg/mL)
MIC [8]: 50 µM (≈ 41.1 µg/mL)

CN[C@@H]1[C@H](O[C@H]2[C@H](O[C@H]3[C@H](O)[C@@H](O)[C@H](N=C(N)N)[C@@H](O)[C@@H]3N=C(N)N)O[C@@H](C)[C@]2(O)C=O)O[C@@H](CO)[C@H](O)[C@H]1O [streptomycin]
MIC [2]: 50 µM (≈ 29.1 µg/mL)
MIC [3]: 50 µM (≈ 29.1 µg/mL)
MIC [4]: 50 µM (≈ 29.1 µg/mL)
MIC [5]: > 50 µM
MIC [6]: 50 µM (≈ 29.1 µg/mL)
MIC [7]: 50 µM (≈ 29.1 µg/mL)
MIC [8]: > 50 µM
